The test system of the data set is CCRIS mutagenicity, Ames/micronucleus/aberration tests. As to the kind of experiment: CCRIS mutagenicity studies.
The mark [1] stands for this setting: Test System: AMES SALMONELLA TYPHIMURIUM, Strain/Indicator: TA1537, Metabolic Activation: NONE, Method: STANDARD PLATE.
The mark [2] stands for this setting: Test System: AMES SALMONELLA TYPHIMURIUM, Strain/Indicator: TA100, Metabolic Activation: NONE, Method: STANDARD PLATE.
[3] abbreviates: Test System: AMES SALMONELLA TYPHIMURIUM, Strain/Indicator: TA98, Metabolic Activation: NONE, Method: STANDARD PLATE.
Setting [4] is: Test System: AMES SALMONELLA TYPHIMURIUM, Strain/Indicator: TA98, Metabolic Activation: RAT, LIVER, S-9, AROCLOR 1254, Method: STANDARD PLATE.
Setting [5] is: Test System: AMES SALMONELLA TYPHIMURIUM, Strain/Indicator: TA100, Metabolic Activation: RAT, LIVER, S-9, AROCLOR 1254, Method: STANDARD PLATE.
[6] abbreviates: Test System: AMES SALMONELLA TYPHIMURIUM, Strain/Indicator: TA1535, Metabolic Activation: NONE, Method: STANDARD PLATE.
Where [7] appears, read: Test System: AMES SALMONELLA TYPHIMURIUM, Strain/Indicator: TA1535, Metabolic Activation: RAT, LIVER, S-9, AROCLOR 1254, Method: STANDARD PLATE.
Setting [8] is: Test System: AMES SALMONELLA TYPHIMURIUM, Strain/Indicator: TA1537, Metabolic Activation: RAT, LIVER, S-9, AROCLOR 1254, Method: STANDARD PLATE.
Setting [9] is: Test System: AMES SALMONELLA TYPHIMURIUM, Strain/Indicator: TA1538, Metabolic Activation: NONE, Method: STANDARD PLATE.
[10] abbreviates: Test System: AMES SALMONELLA TYPHIMURIUM, Strain/Indicator: TA1538, Metabolic Activation: RAT, LIVER, S-9, AROCLOR 1254, Method: STANDARD PLATE.

Structures are written as SMILES. Active and inactive are the calls of the source. How the calls were made is not given here.

The values that follow come from PubChem BioAssay AID1259407 (Chemical Carcinogenesis Research Information System (CCRIS), 2018).

Take `COc1ccc2nc3occc3c(OC)c2c1`: the mutagenic call (Test System: AMES SALMONELLA TYPHIMURIUM, Strain/Indicator: TA98, Metabolic Activation: RAT, LIVER, S-9, PHENOBARBITAL, Method: STANDARD PLATE) is “active; positive” and the mutagenic call (Test System: AMES SALMONELLA TYPHIMURIUM, Strain/Indicator: TA100, Metabolic Activation: RAT, LIVER, S-9, PHENOBARBITAL, Method: STANDARD PLATE) was “active; positive”.

As to `CN(C)CCNC(=O)c1ccc2ccc3cccnc3c2n1`, the mutagenic call under setting [1] was “active; positive”.

On to `CC(=O)Nc1ccc(Oc2ccc(Cl)cc2)cc1`, for which the mutagenic call was “inactive; negative” under setting [2] and “active; positive” (Test System: AMES SALMONELLA TYPHIMURIUM, Strain/Indicator: TA100, Metabolic Activation: RAT, LIVER, S-9, KANECLOR 500, Method: STANDARD PLATE).

As for `c1cc2sncc2cc1OCC1CO1` (stereo not drawn), the mutagenic call (Test System: AMES SALMONELLA TYPHIMURIUM, Strain/Indicator: TA100, Metabolic Activation: S-9, Method: STANDARD PLATE) was “active; positive”.

As for `CCOP(=O)(OCC)O/C(=C/Br)c1ccc(Cl)cc1Cl`, the mutagenic call runs as follows: under setting [3], “inactive; negative”; under setting [4], “inactive; negative”; under setting [2], “inactive; negative”; under setting [5], “inactive; negative”; under setting [6], “inactive; negative”; under setting [7], “inactive; negative”. The mutagenic call runs as follows: under setting [1], “inactive; negative”; under setting [8], “inactive; negative”; under setting [9], “inactive; negative”; under setting [10], “inactive; negative”.

For `CCOC(=O)C[n+]1csc2ccccc21`, the mutagenic call runs as follows: under setting [3], “inactive; negative”; under setting [2], “inactive; negative”; under setting [6], “inactive; negative”; (Test System: E.COLI, Strain/Indicator: WP2, Metabolic Activation: NONE, Method: STANDARD PLATE) “inactive; negative”; (Test System: E.COLI, Strain/Indicator: WP2 UVRA, Metabolic Activation: NONE, Method: STANDARD PLATE) “inactive; negative”.

In the case of `CC(C)CCC[C@@H](C)[C@H]1CC[C@H]2[C@@H]3CC=C4CCCC[C@]4(C)[C@H]3CC[C@]12C`, the mutagenic call is “inactive; negative” (Test System: AMES SALMONELLA TYPHIMURIUM, Strain/Indicator: TA97A, Metabolic Activation: NONE, Method: STANDARD PLATE); “inactive; negative” (Test System: AMES SALMONELLA TYPHIMURIUM, Strain/Indicator: TA97A, Metabolic Activation: RAT, LIVER, S-9, AROCLOR 1254, Method: STANDARD PLATE); “inactive; negative” under setting [2]; “inactive; negative” under setting [5]; “inactive; negative” (Test System: AMES SALMONELLA TYPHIMURIUM, Strain/Indicator: TA102, Metabolic Activation: NONE, Method: STANDARD PLATE); “inactive; negative” (Test System: AMES SALMONELLA TYPHIMURIUM, Strain/Indicator: TA102, Metabolic Activation: RAT, LIVER, S-9, AROCLOR 1254, Method: STANDARD PLATE). Also, the mutagenic call is, setting by setting: (Test System: AMES SALMONELLA TYPHIMURIUM, Strain/Indicator: TA104, Metabolic Activation: NONE, Method: STANDARD PLATE) “inactive; negative”; (Test System: AMES SALMONELLA TYPHIMURIUM, Strain/Indicator: TA104, Metabolic Activation: RAT, LIVER, S-9, AROCLOR 1254, Method: STANDARD PLATE) “inactive; negative”.

As to `CNP1(NC)=NP(NC)(NC)=NP(NC)(NC)=N1`, the mutagenic call runs as follows: under setting [3], “inactive; negative”; under setting [4], “inactive; negative”; under setting [2], “inactive; negative”; under setting [5], “inactive; negative”.

Turning to `CO[C@@H]1C[C@](C)(O)Cc2cc3c(c(O)c21)C(=O)c1c(O)cc2c(c1C3=O)O[C@@H]1O[C@@]2(C)[C@H](O)[C@@H](N(C)C)[C@@H]1O`, the mutagenic call reads like this: (Test System: AMES SALMONELLA TYPHIMURIUM, Strain/Indicator: TA98, Metabolic Activation: NONE, Method: PREINCUBATION) “inactive; negative”; (Test System: AMES SALMONELLA TYPHIMURIUM, Strain/Indicator: TA98, Metabolic Activation: RAT LIVER S-9, Method: PREINCUBATION) “active; positive”; (Test System: AMES SALMONELLA TYPHIMURIUM, Strain/Indicator: TA100, Metabolic Activation: NONE, Method: PREINCUBATION) “inactive; negative”; (Test System: AMES SALMONELLA TYPHIMURIUM, Strain/Indicator: TA100, Metabolic Activation: RAT LIVER S-9, Method: PREINCUBATION) “active; positive”; (Test System: AMES SALMONELLA TYPHIMURIUM, Strain/Indicator: TA1535, Metabolic Activation: NONE, Method: PREINCUBATION) “inactive; negative”; (Test System: AMES SALMONELLA TYPHIMURIUM, Strain/Indicator: TA1535, Metabolic Activation: RAT LIVER S-9, Method: PREINCUBATION) “inactive; negative”. Further, the mutagenic call is, setting by setting: (Test System: AMES SALMONELLA TYPHIMURIUM, Strain/Indicator: TA1537, Metabolic Activation: NONE, Method: PREINCUBATION) “inactive; negative”; (Test System: AMES SALMONELLA TYPHIMURIUM, Strain/Indicator: TA1537, Metabolic Activation: RAT LIVER S-9, Method: PREINCUBATION) “active; positive”; (Test System: E.COLI, Strain/Indicator: WP2 UVRA, Metabolic Activation: NONE, Method: PREINCUBATION) “inactive; negative”; (Test System: E.COLI, Strain/Indicator: WP2 UVRA, Metabolic Activation: RAT LIVER S-9, Method: PREINCUBATION) “inactive; negative”.

`O=[N+]([O-])O[C@@H]1CO[C@H]2[C@@H]1OC[C@@H]2O`: the mutagenic call under setting [3] was “inactive; negative”; the mutagenic call under setting [4] is “inactive; negative”; the mutagenic call under setting [2] is “inactive; negative”; the mutagenic call under setting [5] was “inactive; negative”; the mutagenic call under setting [6] was “inactive; negative”; the mutagenic call under setting [7] was “inactive; negative”. In addition, the mutagenic call reads like this: under setting [1], “inactive; negative”; under setting [8], “inactive; negative”.

For `O=S1(=O)OC(c2cc(Br)c(O)c(Br)c2)(c2cc(Br)c(O)c(Br)c2)c2c(Br)c(Br)c(Br)c(Br)c21`, the mutagenic call by setting is: under setting [3], “inactive; negative”; under setting [4], “inactive; negative”; under setting [2], “inactive; negative”; under setting [5], “inactive; negative”; under setting [6], “inactive; negative”; under setting [7], “inactive; negative”. In addition, the mutagenic call by setting is: under setting [1], “inactive; negative”; under setting [8], “inactive; negative”; under setting [9], “inactive; negative”; under setting [10], “inactive; negative”; (Test System: MOUSE LYMPHOMA, Strain/Indicator: L5178Y (TK+/TK-), Metabolic Activation: NONE, Method: SUSPENSION/PLATE) “inactive; negative”; (Test System: MOUSE LYMPHOMA, Strain/Indicator: L5178Y (TK+/TK-), Metabolic Activation: RAT, LIVER, S-9, AROCLOR 1254, Method: SUSPENSION/PLATE) “inactive; negative”.
